Reference: US12209112B2, “Methods of preventing or treating diseases, conditions, or disorders associated with chemotherapy” (The Chinese University of Hong Kong, priority 2022, dated 2025)

Tests used:
hESC-CMs = experiment: α-actinin immunostaining for sarcomeric integrity; assay type: cell-based, human; conditions: hESC-CMs; agent only, no doxorubicin
Experimental: hESC-CMs were permeabilized using 0.1% Triton X-100 (Thermo Fisher Scientific, USA). After permeabilizing for 15 minutes, cells were washed three times in PBS, and further permeabilization was blocked by incubating cells in PBS with 10% FBS (Hyclone, USA) for 1 hour at room temperature. Cells were incubated with the primary anti-actinin antibody (1:400) (Abcam, UK) and diluted in PBS with 10% FBS overnight. Cells were then washed three times with PBS and incubated with a goat anti-mouse IgG1 secondary antibody (1:1000 diluted in PBS with 10% FBS) (Thermo Fisher Scientific, USA) for 1 hour at room temperature. Finally, cells were washed twice with PBS and mounted using ibidi mounting medium with DAPI (Ibidi, Germany). Microscopic images were acquired using the DMi8s Research Inverted Thunder Imager Live Cell System (Leica, Germany) at 20×, 40×, and 100× magnification.

C57BL/6J male mice [1] = experiment: Noninvasive blood pressure in mouse doxorubicin cardiotoxicity model; assay type: in vivo; conditions: for Day 28 DBP / Day 28 SBP: after doxorubicin 5 mg/kg intraperitoneal once weekly for four weeks (Dox + groups); for Day 28 DBP / Day 28 SBP / Day 0 DBP / Day 0 SBP: n = 4 per group; for Day 0 DBP / Day 0 SBP: before doxorubicin administration
Description: Recombinant human GDF15/MIC-1 protein (CHO-derived) was purchased from PeproTech Inc. (Cranbury, USA) and described in Example 1. […] PubChem identifier number 71384) were purchased from Abcam (Cambridge, UK). For in vitro studies, solid lyophilized powder of these two drugs were solubilized at the recommended concentrations in sterile water, and separate aliquots were made and frozen until thawing prior to addition to cell cultures. […] The recommended dose ratio of dexrazoxane to doxorubicin was 10 to 1. In the following examples, 5 mg/kg of doxorubicin was used which correspond to 50 mg/kg of dexrazoxane. The FDA recommends that dexrazoxane be injected within 0.5 hour prior to doxorubicin infusion in individuals. This was followed in the same manner when applying to the test animals. Ten- to twelve-week old C57BL/6J male mice were purchased from the Laboratory Animal Services Centre of CUHK. They were maintained in specific pathogen-free facility of the CUHK Laboratory Animal Services Centre Research Unit at Prince of Wales Hospital with free access to food and water and maintained in a light/night cycle of 12 hours/12 hours. All mice were fed a standard diet. Blood pressure of animals was measured using the noninvasive CODA® High Throughput System (Torrington, USA) in accordance with the manufacturer's instructions. Measurement platform was prewarmed and maintained at 33-35° C. O-cuffs and VPR-cuffs were used as instructed. Blood pressure of each mouse was measured for at least three cycles. Mice were released and returned to their cages immediately after measurement. Blood pressure was measured twice, once at the beginning of the experiment and once before sacrifice. To induce cardiotoxicity in the mouse, four weekly intraperitoneal injections of doxorubicin at 5 mg/kg were administered. After one dose of doxorubicin at 5-6 mg/kg in a mouse, the level of exposure has been estimated to be similar to that of a human individual being given a standard dose of doxorubicin at approximately 60 mg/m^2.

C57BL/6J male mice [2] = assay type: in vivo, mouse; conditions: mice; pretreatment before doxorubicin
Experimental: (§1) Recombinant human GDF15/MIC-1 protein (CHO-derived) was purchased from PeproTech Inc. (Cranbury, USA) and described in Example 1. […] For in vitro studies, solid lyophilized powder of these two drugs were solubilized at the recommended concentrations in sterile water, and separate aliquots were made and frozen until thawing prior to addition to cell cultures. For in vivo studies, all agents were dissolved in […] normal saline according to the required concentrations (doxorubicin, 5 mg/kg; GDF15, 0.5 mg/kg; dexrazoxane, […]), and the final volume of each intraperitoneal injection was 100 μl. The recommended dose ratio of dexrazoxane to doxorubicin was 10 to 1. In the following examples, 5 mg/kg of doxorubicin was used which correspond to 50 mg/kg of dexrazoxane. The FDA recommends that dexrazoxane be injected within 0.5 hour prior to doxorubicin infusion in individuals. This was followed in the same manner when applying to the test animals.
To induce cardiotoxicity in the mouse, four weekly intraperitoneal injections of doxorubicin at 5 mg/kg were administered. After one dose of doxorubicin at 5-6 mg/kg in a mouse, the level of exposure has been estimated to be similar to that of a human individual being given a standard dose of doxorubicin at approximately 60 mg/m^2. Previous studies have shown that mice injected with doxorubicin once a week at 5 mg/kg for four weeks developed cardiotoxicity, as evidenced by decreased ventricular ejection fraction, cardiomyocyte apoptosis, histopathological changes consistent with doxorubicin-induced myocardial damage, and increased mortality rate, compared with the control group.
The hearts of mice were collected after sacrifice and fixed in 4% paraformaldehyde overnight, followed by paraffin embedding. Afterwards the hearts were cut into 4 μm thick slices. Sections were deparaffinized and rehydrated using sequential immersion in 100% alcohol, 95% alcohol and 70% alcohol for 15 minutes each. […]

C57BL/6J male mice [3] = experiment: TUNEL staining of mouse myocardium (cardiomyocyte apoptosis); assay type: in vivo; conditions: pretreatment before doxorubicin
Experimental: as §1
(§2) To induce cardiotoxicity in the mouse, four weekly intraperitoneal injections of doxorubicin at 5 mg/kg were administered. After one dose of doxorubicin at 5-6 mg/kg in a mouse, the level of exposure has been estimated to be similar to that of a human individual being given a standard dose of doxorubicin at approximately 60 mg/m^2. […]

C57BL/6J male mice [4] = assay type: in vivo, mouse; conditions: mice; pretreatment before doxorubicin, versus doxorubicin only
Experimental: as §1, §2
The image processing and analysis software, ImageJ version 1.53K, was used for evaluation of histopathology from mouse experiments. For Masson's trichrome staining, the acquired images were converted from color to grayscale using ImageJ, the blue-stained collagen were segmented (separated) using thresholding, and the threshold areas in a representative microscopic field were quantified. […] Cells containing brown staining (TUNEL-positive cells) were counted in a representative microscopic field for each mouse in each group.

Which “sarcomere structure (α-actinin immunostaining)” value (hESC-CMs) does the source give for `C[C@@H](CN1CC(=O)NC(=O)C1)N1CC(=O)NC(=O)C1.Cl` [Dex, 4,4′-[(1S)-1-Methyl-1,2-ethanediyl]bis-2,6-piperazinedione hydrochloride, reference compound] here?
Its value is “well-organized, striated sarcomeres”.

What about the “Day 28 DBP” value (C57BL/6J male mice [1]) of the same molecule?
Its value is 84 ± 15 mmHg.

What about the “Day 28 SBP” value (C57BL/6J male mice [1]) of the same molecule?
The value was 108 ± 13 mmHg.

And the “Day 0 DBP” value (C57BL/6J male mice [1])?
The value was 78 ± 26 mmHg.

And the “Day 0 SBP” value (C57BL/6J male mice [1])?
The value was 114 ± 14 mmHg.

What about the “myocardial histopathology (hematoxylin and eosin)” value (C57BL/6J male mice [2]) of the same molecule?
Its value is “similarly improved”.

What about the “cardiomyocyte death by apoptosis (TUNEL staining)” value (C57BL/6J male mice [3]) of the same molecule?
Its value is “reduced extent of cardiomyocyte death by apoptosis”.

What about the “cardiac fibrosis (Masson's trichrome)” value (C57BL/6J male mice [4]) of the same molecule?
The value was “visually and quantitatively reduced”.

B1: GDF15 + Dox: mice given recombinant human GDF15 pretreatment followed by doxorubicin (protein, UniProt Q99988 195-308, looked up)
Growth/differentiation factor …: ARARNGDHCPLGPGRCCRLHTVRASLEDLGWADWVLSPREVQVTMCIGACPSQFRAANMHAQIKTSLHRLKPDTVPAPCCVPASYNPMVLIQKTDTGVSLQTYDDLLAKDCHCI
modifications: given with doxorubicin
B1 was tested. Which “systolic and diastolic blood pressures compared with Dex+Dox group” value (C57BL/6J male mice [1]; Day 28) did it give?
Its value is “lower than that of Dex+Dox treatment group”.

And the “Day 28 DBP” value (C57BL/6J male mice [1])?
Its value is 85 ± 13 mmHg.

What about the “Day 28 SBP” value (C57BL/6J male mice [1]) of the same molecule?
The value was 111 ± 15 mmHg.

And the “Day 0 DBP” value (C57BL/6J male mice [1])?
Its value is 76 ± 25 mmHg.

And the “Day 0 SBP” value (C57BL/6J male mice [1])?
The value was 108 ± 27 mmHg.
